Experimental data taken from patent US20060089375A1, “Pyrazolo[3,4-b] pyridine compounds, and their use as phosphodiesterase inhibitors” (priority 2002, published 2006).

Tested on: LPS-induced pulmonary neutrophilia and emetic episodes in the conscious ferret
Assay: In Vivo Assay 4: Therapeutic Index of PDE4 inhibitors in the conscious ferret (LPS neutrophilia and emesis)
Procedure: PDE4 inhibitors are prepared for oral (p.o.) administration by dissolving in a fixed volume (1 ml) of acetone and then adding cremophor to 20% of the final volume. Acetone is evaporated by directing a flow of nitrogen gas onto the solution. Once the acetone is removed, the solution is made up to final volume with distilled water. LPS is dissolved in phosphate buffered saline.
Male ferrets (Mustela Pulorius Furo, weighing 1-2 kg) are transported and allowed to acclimatise for not less than 7 days. The diet comprises SDS diet C pelleted food given ad lib with Whiskers™ cat food given 3 times per week. The animals are supplied with pasteurised animal grade drinking water changed daily.
PDE4 inhibitors are administered orally (p.o.), using a dose volume of 1 ml/kg. Ferrets are fasted overnight but allowed free access to water. The animals are orally dosed with vehicle or PDE 4 inhibitor using a 15 cm dosing needle that is passed down the back of the throat into the oesophagus. After dosing, the animals are returned to holding cages fitted with perspex doors to allow observation, and given free access to water. The animals are constantly observed and any emetic episodes (retching and vomiting) or behavioural changes are recorded. The animals are allowed access to food 60-90 minutes after p.o. dosing.
Thirty minutes after oral dosing with compound or vehicle control, the ferrets are placed into sealed perspex containers and exposed to an aerosol of LPS (30 μg/ml) for 10 minutes. Aerosols of LPS are generated by a nebuliser (DeVilbiss, USA) and this is directed into the perspex exposure chamber. Following a 10-minute exposure period, the animals are returned to the holding cages and allowed free access to water, and at a later stage, food. General observation of the animals continues for a period of at least 2.5 hours post oral dosing. All emetic episodes and behavioural changes are recorded.
Six hours after LPS exposure the animals are killed by overdose of sodium pentobarbitone administered intraperitoneally. […] From this, the total number of neutrophils in the BAL sample is determined. […]

For `O=C(Nc1c(Cl)cncc1Cl)c1ccc(OC(F)F)c(OCC2CC2)c1` [roflumilast], the “Therapeutic index (TI), ferret Assay 4” value (D20 emesis / D50 neutrophilia, ferret p.o.) was 1.02, the D20 for emesis (p.o., ferret, dose giving 20% incidence of emesis) was 0.5 mg/kg and the D50 for neutrophilia (p.o., ferret, dose giving 50% inhibition of LPS-induced pulmonary neutrophilia) was 0.49 mg/kg.
